Reference: article PMC8863579, “Effects of pharmacological inhibition of the sodium‐dependent phosphate cotransporter 2b (NPT2b) on intestinal phosphate absorption in mouse and rat models” (Pharmacology Research & Perspectives, 2022)
Where “and” joins values, the source holds several entries; their conditions need not be identical. Equal values may be shown once.

Legend:
Human NPT2c = target: T1, Human NPT2c (Homo sapiens, UniProt Q8N130); assay: 33P-phosphate uptake in CHO cells expressing human NPT2c; type: cell-based
T1 construct: Full Length cDNA Cloning and Generation of Cell Lines Over-Expressing Human NPT2a, NPT2c, Pit1, and Pit2; host or cells: CHO-K1 / T-REx CHO, pJTI R4 CMV-TO, tetracycline-induced
T1 sequence (Q8N130 1-599): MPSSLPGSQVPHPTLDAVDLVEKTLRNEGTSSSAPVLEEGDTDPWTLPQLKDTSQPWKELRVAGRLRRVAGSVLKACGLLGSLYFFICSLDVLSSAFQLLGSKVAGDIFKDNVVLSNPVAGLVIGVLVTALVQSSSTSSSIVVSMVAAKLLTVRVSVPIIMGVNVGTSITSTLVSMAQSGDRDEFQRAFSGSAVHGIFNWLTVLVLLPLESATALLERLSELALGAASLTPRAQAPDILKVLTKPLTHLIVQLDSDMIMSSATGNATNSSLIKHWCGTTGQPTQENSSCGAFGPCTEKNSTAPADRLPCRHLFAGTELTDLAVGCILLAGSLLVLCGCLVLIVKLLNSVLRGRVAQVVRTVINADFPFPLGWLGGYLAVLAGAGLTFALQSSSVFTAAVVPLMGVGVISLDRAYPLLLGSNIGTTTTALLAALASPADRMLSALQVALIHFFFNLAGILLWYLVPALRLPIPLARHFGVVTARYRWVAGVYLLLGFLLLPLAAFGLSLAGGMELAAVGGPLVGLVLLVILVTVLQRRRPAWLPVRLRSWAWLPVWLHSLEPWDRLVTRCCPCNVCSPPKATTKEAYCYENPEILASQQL
Protocol: T‐Rex™ Chinese Hamster Ovary cells (CHO; Thermo Fisher Scientific) stably expressing human, mouse, or rat NPT2b under a tetracycline‐inducible promoter were generated using standard cDNA transfection and clone selection procedures (see Supporting Information). Cells were plated in 96‐well CytoStar‐T® scintillating microplates and were incubated overnight in growth media plus 100 ng/ml of tetracycline to induce expression of NPT2b. The next day, cells were washed 3 times with 200 µl assay buffer (137 mM NaCl, 5.4 mM KCl, 2.8 mM CaCl2, 1.2 mM MgSO4, and 14 mM Tris‐HCl buffer, pH 7.5). LY3358966 serially diluted 1‐to‐3 in DMSO was added to cells with assay buffer. An equal volume of H3 ^33PO4 (PerkinElmer) in assay buffer supplemented with 5 µM potassium phosphate was then added to initiate radiolabeled phosphate (^33P‐phosphate) uptake. […] The plate was immediately read on a Wallac MicroBeta Trilux liquid scintillation counter. Percent inhibition at all concentrations tested was calculated, and IC50 values were then determined using a 4‐parameter logistic curve fitting equation.
Similar methods were used to measure the effects of LY3358966 on other transporters of interest, except that constitutive promoters were used to generate CHO cells over‐expressing human PiT1 and PiT2. The ^33P‐phosphate uptake was measured after 45 min at 20°C for the NPT2a, NPT2c, PiT1, and PiT2 assays. […]

NPT2b = target: T2, NPT2b (Rattus norvegicus, UniProt Q9JJ09); assay: Acute phosphate uptake into plasma in rats; type: in vivo; conditions: 10 mg/kg
T2 construct: from tissue; host or cells: intestine of live Sprague Dawley rats, oral dosing
T2 sequence (Q9JJ09 1-695): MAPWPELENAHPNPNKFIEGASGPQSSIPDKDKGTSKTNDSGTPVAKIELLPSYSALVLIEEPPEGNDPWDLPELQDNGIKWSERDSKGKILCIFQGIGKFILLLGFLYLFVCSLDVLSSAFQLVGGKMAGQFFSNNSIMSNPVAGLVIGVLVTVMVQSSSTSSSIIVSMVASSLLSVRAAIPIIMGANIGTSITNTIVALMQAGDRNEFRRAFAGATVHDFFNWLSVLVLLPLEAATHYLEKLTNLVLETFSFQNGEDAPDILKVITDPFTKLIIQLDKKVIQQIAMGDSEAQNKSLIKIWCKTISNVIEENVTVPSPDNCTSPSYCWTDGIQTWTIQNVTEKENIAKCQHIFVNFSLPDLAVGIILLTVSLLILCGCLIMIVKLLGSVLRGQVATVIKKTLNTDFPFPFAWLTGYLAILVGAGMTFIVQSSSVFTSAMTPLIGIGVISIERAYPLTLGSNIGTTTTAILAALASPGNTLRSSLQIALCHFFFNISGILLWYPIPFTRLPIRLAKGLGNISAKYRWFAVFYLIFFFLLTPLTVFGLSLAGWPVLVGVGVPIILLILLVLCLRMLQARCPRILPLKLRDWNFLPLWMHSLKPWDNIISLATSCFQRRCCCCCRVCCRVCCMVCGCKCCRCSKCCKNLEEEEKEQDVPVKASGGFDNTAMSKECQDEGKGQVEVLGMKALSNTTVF
Protocol: A similar method was used to determine the ability of LY3358966 to inhibit acute phosphate uptake into plasma in Sprague Dawley rats (192–225 g, n = 14/group). In the rat studies, a 2 ml volume of the radioactive phosphate dosing solution (about 10 million dpm of H3 ^33PO4) was dosed to each animal. Due to the low inhibitory activity at 15 min after dosing the compound, the effect at 4 h was not determined.

Which results are given for `CC1(C)CN(C(=O)NCCCCO)CCN1Cc1cccc(C(=O)Nc2sc3c(c2C(=O)Nc2cc(F)c(CCc4ccc(C(=O)O)cc4)c(F)c2)CCCC3)c1` [LY3358966, 4‐[2‐[2,6‐difluoro‐4‐[[2‐[[3‐[[4‐(4‐hydroxybutylcarbamoyl)‐2,2‐dimethyl‐piperazin‐1‐yl]methyl]benzoyl]amino]‐4,5,6,7‐tetrahydrobenzothiophene‐3‐carbonyl]amino]phenyl]ethyl]benzoic acid]?
IC50 (Human NPT2c; geometric mean, 45 min at 20°C): 251 nM; Selectivity (Human NPT2c; ratio of IC50 of human NPT2c assay to that of human NPT2b assay): 8; decrease of acute phosphate uptake into plasma, mean ± SEM of three studies (NPT2b; 15 min): 22% and 22 ± 3%; decrease of phosphate absorption (acute uptake into plasma) (NPT2b; two additional single studies): 28.2% and 19.2%
